Experimental data reported in publication PMC8229550 (Pharmaceuticals, 2021).
Where two headings read alike, the source gives them in different places.

Tests used:
[1] = target: SARS-CoV-2 main protease (M^Pro) (Severe acute respiratory syndrome coronavirus 2, UniProt P0DTD1); assay: biochemical
MTT cytotoxicity assay = format: cell-based; settings: normal human adult dermal fibroblasts (HDFa)
Description: To determine the half-maximal cell toxicity concentration (CC50) to assess the compound toxicity, we prepared stock solutions of the test compounds in 10% DMSO with ddH2O and further diluted with DMEM to the working solutions. The cytotoxic effect of the tested compounds was evaluated in normal human adult dermal fibroblasts (HDFa) (Sigma-Aldrich, Dorset, UK) using the previously reported 3-(4,5-dimethylthiazol-2-yl)-2,5-diphenyltetrazolium bromide (MTT) method with slight adjustments. Briefly, 100 µL cells/well at a density of 3 × 10^5 cells/mL were placed in 96-well plates and then incubated in 5% CO2 for 24 h at 37 °C. After 24 h, different concentrations of the test compound(s) were added to the cells in triplicate. After another 24 h, the supernatant was removed, and cells were washed with sterile 1× PBS three times. Then, 20 µL of 5 mg/mL MTT stock solution was added to each well, and the plate was incubated at 37 °C for 4 h. The produced formazan crystals were dissolved in 200 µL of acidified isopropanol (0.04 M HCl in absolute isopropanol). After that, we measured the absorbance of formazan solutions at λmax 540 nm using a BioTek Lx800 microplate reader (BioTek Instrument Ltd., Bedfordshire, UK). […]

| Compound | IC50 [1] [µM] | Ki [1] [µM] | Potency relative to α-rubromycin (times more potent) ([1]; M^Pro inhibition, versus α-rubromycin) [times] | CC50 at 24 h (MTT cytotoxicity assay) [µM] | Ki ([1]; 0–250 µM substrate, 0–50 µM inhibitor, read-out: M^Pro inhibition constant Ki) [µM] | IC50 ([1]; fluorescence, 40 µM substrate, 4 h at 20 °C, read-out: M^Pro inhibitory activity IC50) [µM] |
| --- | --- | --- | --- | --- | --- | --- |
| O=C(O)c1cc(=O)c2c(OCC(O)COc3cccc4oc(C(=O)O)cc(=O)c34)cccc2o1 [Cromoglicic acid, cromoglicic acid] | 1.1 | 0.68 | 4.5 | > 100 |  |  |
| COC(=O)c1cc2cc(CCc3cc4c(o3)C(=O)c3c(O)c(OC)cc(OC)c3C4=O)c(O)c(O)c2c(=O)o1 [α-Rubromycin, α-rubromycin] |  |  |  | 16.7 | 3.22 | 5.4 |
